From US20230278972A1, “SUBSTITUTED HALOALKYL SULFONANILIDE HERBICIDES” (FMC Corporation, priority 2020, published 2023)

Tests used:
Assay type in all cases: in vivo
[1] = tested on: blackgrass (Alopecurus myosuroides); test: Test A1 preemergence, blackgrass
In short: (§1)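 Test compounds were formulated in a non-phytotoxic solvent mixture containing a surfactant. For preemergence, seeds sown in a loam soil–sand blend received a directed soil spray. For postemergence, potted plants in the same soil, 2 to 10 cm tall at the one- to two-leaf stage, were sprayed.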

corn (Zea mays) [2] = test: Test A1 preemergence, corn
In short: (§2)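 Plants were grown in a loam soil/sand blend, with test chemicals formulated in a non-phytotoxic solvent mixture containing surfactant. Preemergence treatment (corn) was a directed soil spray at planting. Postemergence treatment was applied to plants 2 to 10 cm tall at the one- to two-leaf stage.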

[3] = tested on: Foxtail, Giant (giant foxtail, Setaria faberi); test: Test A1 preemergence, Foxtail, Giant
In short: as §1

[4] = tested on: goosegrass (Eleusine indica); test: Test A1 preemergence, goosegrass
In short: as §1

kochia (Bassia scoparia) [5] = test: Test A1 preemergence, kochia
In short: as §1

[6] = tested on: Oat, Wild (wild oat, Avena fatua); test: Test A1 preemergence, Oat, Wild
In short: as §1

[7] = tested on: Pigweed, Palmer (palmer amaranth, palmer pigweed, Amaranthus palmeri); test: Test A1 preemergence, Pigweed, Palmer
In short: as §1

[8] = tested on: ragweed (common ragweed, Ambrosia artemisiifolia); test: Test A1 preemergence, ragweed
In short: as §1

[9] = tested on: Ryegrass, Italian (Italian ryegrass, Lolium multiflorum); test: Test A1 preemergence, Ryegrass, Italian
In short: as §1

soybean (Glycine max) [10] = test: Test A1 preemergence, soybean
In short: as §1

[11] = tested on: wheat (Triticum aestivum); test: Test A1 preemergence, wheat
In short: as §1

[12] = tested on: blackgrass (Alopecurus myosuroides); test: Test A1 postemergence, blackgrass; details: Postemergence, 0 to 100 scale (0 no effect, 100 complete control)
In short: (§3)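 Plants grown in pots of loam/sand mix; preemergence = soil-directed spray on seeded pots, postemergence = spray at 1–2 leaves, height 2–10 cm; test chemicals formulated in non-phytotoxic solvent with surfactant.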

corn (Zea mays) [13] = test: Test A1 postemergence, corn; details: Postemergence
In short: as §1

[14] = tested on: Foxtail, Giant (giant foxtail, Setaria faberi); test: Test A1 postemergence, Foxtail, Giant; details: Postemergence
In short: as §3

[15] = tested on: goosegrass (Eleusine indica); test: Test A1 postemergence, goosegrass; details: Postemergence
In short: as §3

kochia (Bassia scoparia) [16] = test: Test A1 postemergence, kochia; details: Postemergence
In short: as §3

[17] = tested on: Oat, Wild (wild oat, Avena fatua); test: Test A1 postemergence, Oat, Wild; details: Postemergence
In short: as §2

[18] = tested on: Pigweed, Palmer (palmer amaranth, palmer pigweed, Amaranthus palmeri); test: Test A1 postemergence, Pigweed, Palmer; details: Postemergence
In short: as §2

[19] = tested on: ragweed (common ragweed, Ambrosia artemisiifolia); test: Test A1 postemergence, ragweed; details: Postemergence
In short: as §2

[20] = tested on: Ryegrass, Italian (Italian ryegrass, Lolium multiflorum); test: Test A1 postemergence, Ryegrass, Italian; details: Postemergence
In short: as §3

soybean (Glycine max) [21] = test: Test A1 postemergence, soybean; details: Postemergence
In short: as §3

[22] = tested on: wheat (Triticum aestivum); test: Test A1 postemergence, wheat; details: Postemergence
In short: as §3

[23] = tested on: galium (catchweed bedstraw, Galium aparine); test: Test A1 postemergence, galium; details: Postemergence
In short: as §3

[24] = tested on: horseweed (Erigeron canadensis); test: Test A1 postemergence, horseweed; details: Postemergence
In short: as §3

[25] = tested on: barnyardgrass (Echinochloa crus-galli); test: Test B1 flooded paddy test, barnyardgrass; details: 250 g ai/ha, Flood, applied to paddy water, 2-leaf stage, visually evaluated after 10 to 14 days
Source text: (§4) A dash (-) response means no test result.

[26] = tested on: ducksalad (Heteranthera limosa); test: Test B1 flooded paddy test, ducksalad; details: 250 g ai/ha, Flood, applied to paddy water, 2-leaf stage, visually evaluated after 10 to 14 days
Source text: as §4

rice (Oryza sativa) = test: Test B1 flooded paddy test, rice; details: 250 g ai/ha, Flood, applied to paddy water, 2-leaf stage, visually evaluated after 10 to 14 days
Source text: as §4

[27] = 31 g ai/ha, 0 to 100 scale (0 no effect, 100 complete control)
[28] = 125 g ai/ha, 0 to 100 scale, 0 no effect, 100 complete control
[29] = 31 g ai/ha, 0 to 100 scale (0 no effect, 100 complete control), 10 days

`Cc1cc(C)c(N(COC(=O)C(C)(C)C)S(=O)(=O)C(F)(F)F)cc1C1=NOC2COCC12` (stereo not drawn) [Compound 301] was tested, and the “Plant response rating, Blackgrass” value [1, 27] was 30, the “Plant response rating, Blackgrass” value [1, 28] was 40 and the “Plant response rating, Corn” value (corn (Zea mays) [2]; [27]) was 0. The “Plant response rating, Corn” value (corn (Zea mays) [2]; [28]) was 10, the “Plant response rating, Foxtail, Giant” value [3, 27] was 10 and the “Plant response rating, Foxtail, Giant” value [3, 28] was 90. For the same compound, the “Plant response rating, Goosegrass” value [4, 27] was 80, the “Plant response rating, Goosegrass” value [4, 28] was 100 and the “Plant response rating, Kochia” value (kochia (Bassia scoparia) [5]; [27]) was 30. The “Plant response rating, Kochia” value (kochia (Bassia scoparia) [5]; [28]) was 80, the “Plant response rating, Oat, Wild” value [6, 27] was 0 and the “Plant response rating, Oat, Wild” value [6, 28] was 0. The “Plant response rating, Pigweed, Palmer” value [7, 27] was 10, the “Plant response rating, Pigweed, Palmer” value [7, 28] was 40 and the “Plant response rating, Ragweed” value [8, 27] was 0. The “Plant response rating, Ragweed” value [8, 28] was 80, the “Plant response rating, Ryegrass, Italian” value [9, 27] was 20 and the “Plant response rating, Ryegrass, Italian” value [9, 28] was 90. For the same compound, the “Plant response rating, Soybean” value (soybean (Glycine max) [10]; [27]) was 0, the “Plant response rating, Soybean” value (soybean (Glycine max) [10]; [28]) was 20 and the “Plant response rating, Wheat” value [11, 27] was 0. The “Plant response rating, Wheat” value [11, 28] was 40, the “Plant response rating, Blackgrass” value ([12]; 31 g ai/ha, 10 days) was 0 and the “Plant response rating, Blackgrass” value ([12]; 125 g ai/ha) was 0. The “Plant response rating, Corn” value (corn (Zea mays) [13]; [29]) was 0, the “Plant response rating, Corn” value (corn (Zea mays) [13]; 125 g ai/ha, 0 to 100 scale) was 30 and the “Plant response rating, Foxtail, Giant” value [14, 29] was 0. For the same compound, the “Plant response rating, Foxtail, Giant” value ([14]; 125 g ai/ha, 0 to 100 scale) was 60, the “Plant response rating, Goosegrass” value [15, 29] was 0 and the “Plant response rating, Goosegrass” value ([15]; 125 g ai/ha, 0 to 100 scale) was 60. The “Plant response rating, Kochia” value (kochia (Bassia scoparia) [16]; [29]) was 0, the “Plant response rating, Kochia” value (kochia (Bassia scoparia) [16]; 125 g ai/ha, 0 to 100 scale) was 30 and the “Plant response rating, Oat, Wild” value [17, 29] was 0. The “Plant response rating, Oat, Wild” value ([17]; 125 g ai/ha, 0 to 100 scale) was 10, the “Plant response rating, Pigweed, Palmer” value [18, 29] was 0 and the “Plant response rating, Pigweed, Palmer” value ([18]; 125 g ai/ha, 0 to 100 scale) was 30. The “Plant response rating, Ragweed” value [19, 29] was 60, the “Plant response rating, Ragweed” value ([19]; 125 g ai/ha, 0 to 100 scale) was 70 and the “Plant response rating, Ryegrass, Italian” value [20, 29] was 0. The “Plant response rating, Ryegrass, Italian” value ([20]; 125 g ai/ha, 0 to 100 scale) was 60, the “Plant response rating, Soybean” value (soybean (Glycine max) [21]; [29]) was 10 and the “Plant response rating, Soybean” value (soybean (Glycine max) [21]; 125 g ai/ha, 0 to 100 scale) was 40. For the same compound, the “Plant response rating, Wheat” value [22, 29] was 0, the “Plant response rating, Wheat” value ([22]; 125 g ai/ha, 0 to 100 scale) was 60 and the “Plant response rating, Galium” value [23, 29] was 70. The “Plant response rating, Galium” value ([23]; 125 g ai/ha, 0 to 100 scale) was 90, the “Plant response rating, Horseweed” value [24, 29] was 50 and the “Plant response rating, Horseweed” value ([24]; 125 g ai/ha, 0 to 100 scale) was 80. For the same compound, the “Plant response rating, Barnyardgrass (0 to 100 scale, 0 is no effect, 100 is complete control)” value [25] was 95, the “Plant response rating, Ducksalad (0 to 100 scale, 0 is no effect, 100 is complete control)” value [26] was 50 and the “Plant response rating, Rice (0 to 100 scale, 0 is no effect, 100 is complete control)” value (rice (Oryza sativa)) was 0.
